According to PMC7377239, “Cardiovascular Effects of Polychlorinated Biphenyls and Their Major Metabolites” (Environmental Health Perspectives, 2020):

Key:
ryanodine receptor (RyR) = test system: ryanodine receptor (RyR); set-up: method as in Wong et al. 2001, 1997; Wong and Pessah 1997; details: mechanism involving the ryanodine receptor; ref Wong et al. 2001, 1997; Wong and Pessah 1997; cited from earlier work
[1] = test system: iPSC-CMs, iPSC-ECs and HUVECs phenotypes; test: ToxPi 2.0 integration of POD values and physicochemical descriptors; set-up: species or system human; details: ToxPi-scaled (0-1) score; for huvec.cyto.24hr / huvec.mito.24hr / huvec.mitoint.24hr / huvec.nma.24hr / huvec.tc.24hr / huvec.mtl.18hr / huvec.tlps.18hr / huvec.tta.18hr / huvec.ttl.18hr: HUVECs; for huvec.mtl.18hr / huvec.tlps.18hr / huvec.tta.18hr / huvec.ttl.18hr / endo.mtl.18hr / endo.tlps.18hr / endo.tta.18hr / endo.ttl.18hr: tube formation; for cm.amp.avg.90min / cm.amp.cv.90min / cm.bpm.90min / cm.cam.90min / cm.decay.rise.90min / cm.mii.90min / cm.mito.90min / cm.spacing.cv.90min / cm.tc.90min / cm.amp.avg.24hrs / cm.amp.cv.24hrs / cm.bpm.24hrs / cm.cam.24hrs / cm.decay.rise.24hrs / cm.mii.24hrs / cm.mito.24hrs / cm.spacing.cv.24hrs / cm.tc.24hrs: iPSC cardiomyocytes; for endo.cyto.24hr / endo.mito.24hr / endo.mitoint.24hr / endo.nma.24hr / endo.tc.24hr / endo.mtl.18hr / endo.tlps.18hr / endo.tta.18hr / endo.ttl.18hr: iPSC endothelial cells
How it was run: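 Phenotypic readouts in iPSC-cardiomyocytes, iPSC-endothelial cells and HUVECs were normalised to 0.5% DMSO vehicle and fitted to a four-parameter logistic model. POD set at one SD cutoff of vehicle means, with 100 μM assigned when no response. PODs and physicochemical descriptors combined in ToxPi 2.0 scores.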

[2] = test system: porcine pulmonary artery–derived EC; set-up: method as in Hennig et al. 2002, 2005; Toborek et al. 1995; details: ref Hennig et al. 2002, 2005, Toborek et al. 1995; cited from earlier work
zebrafish = test system: zebrafish; set-up: method as in Li et al. 2014; Teixidó et al. 2019; details: ref Li et al. 2014; Teixidó et al. 2019; cited from earlier work

| Structure (SMILES) | huvec.cyto.24hr [1] | huvec.mito.24hr [1] | huvec.mitoint.24hr [1] | huvec.nma.24hr [1] | huvec.tc.24hr [1] | huvec.mtl.18hr [1] | huvec.tlps.18hr [1] | huvec.tta.18hr [1] | huvec.ttl.18hr [1] | cm.amp.avg.90min [1] | cm.amp.cv.90min [1] | cm.bpm.90min [1] | cm.cam.90min [1] | cm.decay.rise.90min [1] | cm.mii.90min [1] | cm.mito.90min [1] | cm.spacing.cv.90min [1] | cm.tc.90min [1] | cm.amp.avg.24hrs [1] | cm.amp.cv.24hrs [1] | other results |
| --- | --- | --- | --- | --- | --- | --- | --- | --- | --- | --- | --- | --- | --- | --- | --- | --- | --- | --- | --- | --- | --- |
| Clc1ccc(Cl)c(-c2c(Cl)ccc(Cl)c2Cl)c1 [PCB 95, 2,2′,3,5′,6-pentachlorobiphenyl] | 0.9485 | 1 | 0.5155 | 0.5037 | 0.9485 | 0.5568 | 0 | 0 | 0 | 0.3275 | 0.6707 | 0.7438 | 0.4148 | 0.1633 | 0 | 0.3775 | 0.2342 | 0.3895 | 0 | 0.2056 | cellular calcium release (ryanodine receptor (RyR)): sensitizing cellular calcium release; cm.bpm.24hrs [1]: 1; cm.cam.24hrs [1]: 0.3236; cm.decay.rise.24hrs [1]: 0.2316; cm.mii.24hrs [1]: 0.3974; cm.mito.24hrs [1]: 0.5198; cm.spacing.cv.24hrs [1]: 0.1862; cm.tc.24hrs [1]: 0.5603; endo.cyto.24hr [1]: 0; endo.mito.24hr [1]: 0; endo.mitoint.24hr [1]: 0; endo.nma.24hr [1]: 0; endo.tc.24hr [1]: 0; endo.mtl.18hr [1]: 0.07537; endo.tlps.18hr [1]: 0.09893; endo.tta.18hr [1]: 0.06557; endo.ttl.18hr [1]: 0.054 |
| Clc1ccc(-c2cc(Cl)c(Cl)c(Cl)c2)cc1Cl [PCB 126, 3,3′,4,4′,5-pentachlorobiphenyl] | 0.3035 | 0 | 0 | 0 | 0.3035 | 0 | 0 | 0 | 0 | 0.3003 | 0 | 0.8534 | 0 | 1 | 0 | 0 | 0 | 0 | 0.3868 | 0.06292 | cm.bpm.24hrs [1]: 0.6773; cm.cam.24hrs [1]: 0.3565; cm.decay.rise.24hrs [1]: 1; cm.mii.24hrs [1]: 0; cm.mito.24hrs [1]: 0.557; cm.spacing.cv.24hrs [1]: 0.3424; cm.tc.24hrs [1]: 0.6297; endo.cyto.24hr [1]: 1; endo.mito.24hr [1]: 1; endo.mitoint.24hr [1]: 0.315; endo.nma.24hr [1]: 0; endo.tc.24hr [1]: 1; endo.mtl.18hr [1]: 0.1325; endo.tlps.18hr [1]: 0.4903; endo.tta.18hr [1]: 0.1238; endo.ttl.18hr [1]: 0.0871; EC toxicity [2]: potent inducers of EC toxicity; cardiovascular toxicity in zebrafish (zebrafish): pericardial edema, cardiac looping defects, and circulatory failure |
